Source: ChEMBL document CHEMBL1135152, “Design, synthesis, and SAR of monobenzamidines and aminoisoquinolines as factor Xa inhibitors” (Bioorg Med Chem Lett, 2002)

Columns and labels:
[1] = target: T1, Coagulation factor X (Homo sapiens, UniProt P00742); test: Tested in vitro for the inhibitory activity against Coagulation factor Xa
[2] = Bioavailability in rat; type: ADME, organism-based; details: in vivo
[3] = Bioavailability in rat was reported at the dose of 6 mg/kg in 25% PEG-300; type: ADME, organism-based; details: in vivo
[4] = target: T1, Coagulation factor X; test: Tested in vitro for the inhibitory activity against Coagulation factor X
[5] = target: Tissue-type plasminogen activator (Homo sapiens, UniProt P00750); test: Tested in vitro for the inhibitory activity against Tissue plasminogen activator (tissue plasminogen activator)
Sequence of Tissue-type plasminogen activator (P00750 whole entry): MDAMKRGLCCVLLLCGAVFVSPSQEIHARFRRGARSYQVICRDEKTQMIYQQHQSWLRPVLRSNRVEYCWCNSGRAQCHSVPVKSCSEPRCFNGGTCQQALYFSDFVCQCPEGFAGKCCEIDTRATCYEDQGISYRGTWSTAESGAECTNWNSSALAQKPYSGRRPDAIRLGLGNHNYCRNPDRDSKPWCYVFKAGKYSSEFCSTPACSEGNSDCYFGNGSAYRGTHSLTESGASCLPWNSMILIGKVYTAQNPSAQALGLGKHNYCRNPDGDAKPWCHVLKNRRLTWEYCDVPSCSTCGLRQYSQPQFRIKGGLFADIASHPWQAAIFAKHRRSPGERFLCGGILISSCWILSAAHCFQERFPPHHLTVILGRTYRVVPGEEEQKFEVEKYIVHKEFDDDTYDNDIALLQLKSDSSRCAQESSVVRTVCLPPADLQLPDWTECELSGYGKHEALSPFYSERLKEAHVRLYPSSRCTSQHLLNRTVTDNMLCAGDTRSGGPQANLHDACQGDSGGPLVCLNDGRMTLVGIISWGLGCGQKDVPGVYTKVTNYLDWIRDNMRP

[6] = target: Vitamin K-dependent protein C (Homo sapiens, UniProt P04070); test: Tested in vitro for the inhibitory activity against activated protein C (APC)
Sequence of Vitamin K-dependent protein C (P04070 43-197 limits assumed): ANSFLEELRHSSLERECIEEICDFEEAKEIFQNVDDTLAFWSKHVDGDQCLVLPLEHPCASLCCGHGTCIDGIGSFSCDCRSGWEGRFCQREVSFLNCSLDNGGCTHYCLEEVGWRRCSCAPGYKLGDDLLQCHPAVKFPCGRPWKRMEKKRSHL
Sequence of Vitamin K-dependent protein C (P04070 212-461 limits assumed): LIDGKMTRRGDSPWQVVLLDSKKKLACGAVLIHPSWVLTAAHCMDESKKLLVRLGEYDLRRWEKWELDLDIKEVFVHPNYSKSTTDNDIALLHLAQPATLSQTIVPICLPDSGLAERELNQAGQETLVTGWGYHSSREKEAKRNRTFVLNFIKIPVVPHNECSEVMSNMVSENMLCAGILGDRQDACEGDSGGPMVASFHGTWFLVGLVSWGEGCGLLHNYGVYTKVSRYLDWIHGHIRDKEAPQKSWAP

[7] = target: Kallikrein-1 (Homo sapiens, UniProt P06870); test: Tested in vitro for the inhibitory activity against kallikrein
Sequence of Kallikrein-1 (P06870 whole entry): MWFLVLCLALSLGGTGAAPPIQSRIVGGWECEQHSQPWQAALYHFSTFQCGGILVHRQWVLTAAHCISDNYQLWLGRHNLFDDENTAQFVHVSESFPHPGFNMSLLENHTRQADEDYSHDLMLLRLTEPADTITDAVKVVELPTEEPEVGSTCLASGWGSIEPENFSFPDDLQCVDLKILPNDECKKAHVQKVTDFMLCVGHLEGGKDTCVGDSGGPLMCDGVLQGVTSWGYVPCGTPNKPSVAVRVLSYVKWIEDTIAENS

[8] = target: Prothrombin (Homo sapiens, UniProt P00734); test: Tested in vitro for the inhibitory activity against thrombin
[9] = target: Plasminogen (Homo sapiens, UniProt P00747); test: Tested in vitro for the inhibitory activity against plasmin
Sequence of Plasminogen (P00747 97-580 limits assumed): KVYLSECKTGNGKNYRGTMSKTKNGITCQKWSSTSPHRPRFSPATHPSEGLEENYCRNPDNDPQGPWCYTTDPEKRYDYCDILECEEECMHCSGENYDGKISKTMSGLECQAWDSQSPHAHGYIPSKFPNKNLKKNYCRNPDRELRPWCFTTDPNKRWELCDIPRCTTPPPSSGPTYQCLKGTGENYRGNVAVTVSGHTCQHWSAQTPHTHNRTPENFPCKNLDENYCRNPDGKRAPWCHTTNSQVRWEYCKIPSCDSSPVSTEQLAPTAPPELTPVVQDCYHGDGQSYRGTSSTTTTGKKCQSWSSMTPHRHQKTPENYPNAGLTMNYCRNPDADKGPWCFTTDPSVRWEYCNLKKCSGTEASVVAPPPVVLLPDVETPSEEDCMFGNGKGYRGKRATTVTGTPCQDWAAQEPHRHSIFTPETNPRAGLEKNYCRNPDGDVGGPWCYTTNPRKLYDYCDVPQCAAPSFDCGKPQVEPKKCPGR
Sequence of Plasminogen (P00747 581-810 limits assumed): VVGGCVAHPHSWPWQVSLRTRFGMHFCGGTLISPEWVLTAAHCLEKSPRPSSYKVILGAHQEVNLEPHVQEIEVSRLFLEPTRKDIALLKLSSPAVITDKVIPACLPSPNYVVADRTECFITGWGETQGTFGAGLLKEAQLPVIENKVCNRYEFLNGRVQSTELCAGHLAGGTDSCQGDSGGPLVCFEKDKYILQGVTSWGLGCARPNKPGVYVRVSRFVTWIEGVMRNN

[10] = target: Serine protease 1 (Homo sapiens, UniProt P07477); test: Tested in vitro for the inhibitory activity against trypsin
Sequence of Serine protease 1 (P07477 whole entry): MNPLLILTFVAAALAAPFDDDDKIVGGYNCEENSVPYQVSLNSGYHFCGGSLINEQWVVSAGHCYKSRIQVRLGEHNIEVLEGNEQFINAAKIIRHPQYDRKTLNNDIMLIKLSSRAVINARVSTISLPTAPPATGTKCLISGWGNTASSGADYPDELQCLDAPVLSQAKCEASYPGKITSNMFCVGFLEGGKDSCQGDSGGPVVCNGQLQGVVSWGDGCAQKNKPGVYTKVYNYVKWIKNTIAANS

[11] = tested on: Oryctolagus cuniculus; test: Tested for inhibition of thrombosis in rabbit deep vein model after intravenous administration at dosage of 2 mg/kg; type: functional

T1 sequence (P00742 41-179 limits assumed): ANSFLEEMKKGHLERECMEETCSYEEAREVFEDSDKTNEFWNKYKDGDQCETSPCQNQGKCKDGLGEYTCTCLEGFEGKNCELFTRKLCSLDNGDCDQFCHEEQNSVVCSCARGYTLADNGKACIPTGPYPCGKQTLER
T1 sequence (P00742 235-488 limits assumed): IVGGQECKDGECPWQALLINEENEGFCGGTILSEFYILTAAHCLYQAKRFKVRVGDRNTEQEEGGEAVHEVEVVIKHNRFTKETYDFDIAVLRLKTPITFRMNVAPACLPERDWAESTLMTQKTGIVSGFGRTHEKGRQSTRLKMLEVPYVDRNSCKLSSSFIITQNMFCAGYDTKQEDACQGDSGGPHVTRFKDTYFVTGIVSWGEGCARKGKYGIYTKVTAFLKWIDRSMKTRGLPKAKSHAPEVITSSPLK

COC(=O)c1ccc(Oc2cccc(C(=N)N)c2)c(NC(=O)c2ccc(-c3ccccc3S(N)(=O)=O)cc2)c1
IC50 [1]: 2.5 nM

N=C(N)c1cccc(Oc2ccc(C(=O)O)cc2NC(=O)c2ccc(-c3ccccc3S(N)(=O)=O)cc2)c1
bioavailability [2]: 5.5%

N=C(N)c1cccc(Oc2cc(Cl)ccc2NC(=O)c2ccc(-c3ccccc3S(N)(=O)=O)cc2)c1
IC50 [1]: 1.6 nM

N=C(N)c1cccc(OCCN(Cc2ccccc2)C(=O)c2ccc(-c3ccccc3S(N)(=O)=O)cc2)c1
IC50 [1]: 14 nM

Nc1nccc2ccc(OCC(c3ccccc3)N3Cc4cc(-c5ccccc5S(N)(=O)=O)ccc4C3=O)cc12 (stereo not given)
IC50 [1]: 623 nM

N=C(N)c1cccc(OCC(NC(=O)c2ccc(-c3ccccc3S(N)(=O)=O)cc2)c2ccccc2)c1 (stereo not given)
IC50 [1]: 3.4 nM

Nc1nccc2ccc(OCCN3Cc4cc(-c5ccccc5S(N)(=O)=O)ccc4C3=O)cc12
bioavailability [3]: < 5% | IC50 [1]: 22 nM

CN(C)c1ccc(Oc2cccc(C(=N)N)c2)c(C(=O)Nc2ccc(-c3ccccc3S(N)(=O)=O)cc2)c1
IC50 [1]: 10 nM

N=C(N)c1cccc(Oc2cc(Br)ccc2NC(=O)c2ccc(-c3ccccc3S(N)(=O)=O)cc2)c1
IC50 [1]: 2.1 nM

Cc1ccc(NC(=O)c2ccc(-c3ccccc3S(N)(=O)=O)cc2)c(Oc2cccc(C(=N)N)c2)c1
IC50 [1]: 9.9 nM

COC(=O)CN(CCOc1cccc(C(=N)N)c1)C(=O)c1ccc(-c2ccccc2S(N)(=O)=O)cc1
IC50 [1]: 13 nM

N=C(N)c1cccc(Oc2cc(N)ccc2C(=O)Nc2ccc(-c3ccccc3S(N)(=O)=O)cc2)c1
IC50 [1]: 19 nM

CS(=O)(=O)Nc1ccc(Oc2cccc(C(=N)N)c2)c(C(=O)Nc2ccc(-c3ccccc3S(N)(=O)=O)cc2)c1
IC50 [1]: 5.4 nM

Nc1nccc2ccc(OCC(Cc3ccccc3)N3Cc4cc(-c5ccccc5S(N)(=O)=O)ccc4C3=O)cc12 (stereo not given)
IC50 [1]: 226 nM

N=C(N)c1cccc(Oc2ccc([N+](=O)[O-])cc2C(=O)Nc2ccc(-c3ccccc3S(N)(=O)=O)cc2)c1
IC50 [4]: 1.9 nM

CS(=O)(=O)c1ccc(Oc2cccc(C(=N)N)c2)c(NC(=O)c2ccc(-c3ccccc3S(N)(=O)=O)cc2)c1
IC50 [1]: 1.8 nM

N=C(N)c1cccc(Oc2ccc(Br)cc2NC(=O)c2ccc(-c3ccccc3S(N)(=O)=O)cc2)c1
IC50 [1]: 1.6 nM

CN(C)c1ccc(C(=O)Nc2ccc(-c3ccccc3S(N)(=O)=O)cc2)c(Oc2cccc(C(=N)N)c2)c1
IC50 [1]: 16 nM

CC(COc1cccc(C(=N)N)c1)NC(=O)c1ccc(-c2ccccc2S(N)(=O)=O)cc1 (stereo not given)
IC50 [1]: 16 nM

CC(COc1ccc2ccnc(N)c2c1)N1Cc2cc(-c3ccccc3S(N)(=O)=O)ccc2C1=O (stereo not given)
IC50 [1]: 25 nM

N=C(N)c1cccc(Oc2ccc(Br)cc2C(=O)Nc2ccc(-c3ccccc3S(N)(=O)=O)cc2)c1
IC50 [1]: 4.4 nM

N=C(N)c1cccc(OCCN(CC(=O)O)C(=O)c2ccc(-c3ccccc3S(N)(=O)=O)cc2)c1
IC50 [1]: 34 nM

Nc1nccc2ccc(Oc3ccc(C(F)(F)F)cc3NC(=O)c3ccc(-c4ccccc4S(N)(=O)=O)cc3)cc12
IC50 [1]: 1810 nM

Nc1nccc2ccc(Oc3ccccc3NC(=O)c3ccc(-c4ccccc4S(N)(=O)=O)cc3)cc12
IC50 [1]: 646 nM

N=C(N)c1cccc(OCCNC(=O)c2ccc(-c3ccccc3S(N)(=O)=O)cc2)c1
IC50 [5]: 109000 nM | IC50 [6]: 3700 nM | IC50 [1]: 7.5 nM | IC50 [7]: 2100 nM | IC50 [8]: 321000 nM | IC50 [9]: 13000 nM | IC50 [10]: 1200 nM

CC(=O)Nc1ccc(Oc2cccc(C(=N)N)c2)c(C(=O)Nc2ccc(-c3ccccc3S(N)(=O)=O)cc2)c1
IC50 [1]: 7.7 nM

N=C(N)c1cccc(Oc2cc(O)ccc2NC(=O)c2ccc(-c3ccccc3S(N)(=O)=O)cc2)c1
IC50 [1]: 3.9 nM

N=C(N)c1cccc(Oc2cc(Cl)ccc2C(=O)Nc2ccc(-c3ccccc3S(N)(=O)=O)cc2)c1
IC50 [1]: 1.5 nM

N=C(N)c1cccc(Oc2cc([N+](=O)[O-])ccc2C(=O)Nc2ccc(-c3ccccc3S(N)(=O)=O)cc2)c1
IC50 [1]: 4.8 nM | bioavailability [2]: 0.3%

CNc1ccc(C(=O)Nc2ccc(-c3ccccc3S(N)(=O)=O)cc2)c(Oc2cccc(C(=N)N)c2)c1
IC50 [1]: 12 nM

N=C(N)c1cccc(OCCN(Cc2cccnc2)C(=O)c2ccc(-c3ccccc3S(N)(=O)=O)cc2)c1
IC50 [1]: 11 nM

Nc1nccc2ccc(Oc3ccc(F)cc3NC(=O)c3ccc(-c4ccccc4S(N)(=O)=O)cc3)cc12
IC50 [1]: 1320 nM

COc1ccc(NC(=O)c2ccc(-c3ccccc3S(N)(=O)=O)cc2)c(Oc2cccc(C(=N)N)c2)c1
IC50 [1]: 1.6 nM

CC(=O)Nc1ccc(C(=O)Nc2ccc(-c3ccccc3S(N)(=O)=O)cc2)c(Oc2cccc(C(=N)N)c2)c1
IC50 [1]: 61 nM

N=C(N)c1cccc(Oc2ccccc2C(=O)Nc2ccc(-c3ccccc3S(N)(=O)=O)cc2)c1
IC50 [1]: 7.3 nM

N=C(N)c1cccc(OCC(Cc2ccccc2)NC(=O)c2ccc(-c3ccccc3S(N)(=O)=O)cc2)c1 (stereo not given)
IC50 [1]: 5.6 nM

N=C(N)c1cccc(Oc2cc(Br)ccc2C(=O)Nc2ccc(-c3ccccc3S(N)(=O)=O)cc2)c1
IC50 [1]: 1.2 nM

CS(=O)(=O)c1ccc(Oc2ccc3ccnc(N)c3c2)c(NC(=O)c2ccc(-c3ccccc3S(N)(=O)=O)cc2)c1
IC50 [1]: 6060 nM

N=C(N)c1cccc(OCCN2Cc3cc(-c4ccccc4S(N)(=O)=O)ccc3C2=O)c1
IC50 [1]: 3.6 nM

N=C(N)c1cccc(Oc2ccccc2NC(=O)c2ccc(-c3ccccc3S(N)(=O)=O)cc2)c1
IC50 [5]: 18000 nM | IC50 [6]: > 181000 nM | IC50 [1]: 3.6 nM | IC50 [7]: 250 nM | IC50 [8]: > 11000 nM | IC50 [9]: 43000 nM | inhibition in vivo at 2 mg/kg [11]: 41% | IC50 [10]: 970 nM

N=C(N)c1cccc(Oc2ccc(N)cc2C(=O)Nc2ccc(-c3ccccc3S(N)(=O)=O)cc2)c1
IC50 [1]: 12 nM

N=C(N)c1cccc(Oc2ccc(Cl)cc2C(=O)Nc2ccc(-c3ccccc3S(N)(=O)=O)cc2)c1
IC50 [1]: 7.7 nM

N=C(N)c1cccc(Oc2ccc(F)cc2NC(=O)c2ccc(-c3ccccc3S(N)(=O)=O)cc2)c1
IC50 [1]: 4.5 nM

N=C(N)c1cccc(OCCN(Cc2ccoc2)C(=O)c2ccc(-c3ccccc3S(N)(=O)=O)cc2)c1
IC50 [1]: 7.8 nM

N=C(N)c1cccc(Oc2ccc(C(F)(F)F)cc2NC(=O)c2ccc(-c3ccccc3S(N)(=O)=O)cc2)c1
IC50 [1]: 2.5 nM
